ChEMBL document CHEMBL3885861, “Open TG-GATES”

Organism: Rattus norvegicus
Experiment: Open TG-GATES - Regimen: Daily Repeat
Type: toxicity, organism-based, Sprague-Dawley
Design: regimen Daily Repeat, gender Male, age 6 weeks
Conditions: in vivo, po, 0 mg/kg, route gavage, dose level Control; for APTT / Bas / Eos / Fbg / Hb / Ht / Lym / MCH / MCHC / MCV / Mono / Neu / PT / Plat / RBC / Ret / WBC: tissue Blood; for KIDNEY_L / KIDNEY_R / KIDNEY_TOTAL: tissue Kidney; for LIVER: tissue Liver; for A/G / ALP / ALT / AST / BUN / CRE / Ca / Cl / DBIL / GLC / IP / K / LDH / Na / PL / RALB / TBIL / TC / TG / TP / gamma-GTP: tissue Plasma

SMILES: Cc1cccc(C)c1OCC(C)N (configuration not stated) [MEXILETINE]
- TERMINAL_BW (72 h, time 3 day): 240.8 g
- APTT (72 h, time 3 day): 20.3 s
- Bas (72 h, time 3 day): 0%
- Eos (72 h, time 3 day): 0.8%
- Fbg (72 h, time 3 day): 302.4 mg/dL
- Hb (72 h, time 3 day): 12.6 g/dL
- Ht (72 h, time 3 day): 39.4%
- Lym (72 h, time 3 day): 81.6%
- MCH (72 h, time 3 day): 19.9 pg
- MCHC (72 h, time 3 day): 32.1%
- MCV (72 h, time 3 day): 61.9 fL
- Mono (72 h, time 3 day): 2.8%
- Neu (72 h, time 3 day): 13.8%
- PT (72 h, time 3 day): 15.8 s
- Plat (72 h, time 3 day): 115 x10_4/uL
- RBC (72 h, time 3 day): 636.6 x10_4/ul
- Ret (72 h, time 3 day): 6.3%
- WBC (72 h, time 3 day): 120.4 x10_2/uL
- KIDNEY_L (72 h, time 3 day): 1.1 g
- KIDNEY_R (72 h, time 3 day): 1.1 g
- KIDNEY_TOTAL (72 h, time 3 day): 2.2 g
- LIVER (72 h, time 3 day): 11.2 g
- A/G (72 h, time 3 day): 1.3
- ALP (72 h, time 3 day): 1769.2 IU/L
- ALT (72 h, time 3 day): 44.8 IU/L
- AST (72 h, time 3 day): 72.2 IU/L
- BUN (72 h, time 3 day): 15.6 mg/dL
- CRE (72 h, time 3 day): 0.1 mg/dL
- Ca (72 h, time 3 day): 10.4 mg/dL
- Cl (72 h, time 3 day): 106 meq/L
- DBIL (72 h, time 3 day): 0 mg/dL
- GLC (72 h, time 3 day): 201.2 mg/dL
- IP (72 h, time 3 day): 7.6 mg/dL
- K (72 h, time 3 day): 4.4 meq/L
- LDH (72 h, time 3 day): 178 IU/L
- Na (72 h, time 3 day): 142 meq/L
- PL (72 h, time 3 day): 134 mg/dL
- RALB (72 h, time 3 day): 3 g/dL
- TBIL (72 h, time 3 day): 0.008 mg/dL
- TC (72 h, time 3 day): 73.2 mg/dL
- TG (72 h, time 3 day): 69.6 mg/dL
- TP (72 h, time 3 day): 5.4 g/dL
- gamma-GTP (72 h, time 3 day): 2.2 IU/L
- TERMINAL_BW ([…], time 7 day): 274.3 g
- TERMINAL_BW ([…], time 14 day): 321.8 g
- TERMINAL_BW ([…], time 28 day): 408.3 g
- APTT ([…], time 7 day): 23.4 s
- Bas ([…], time 7 day): 0%
- Eos ([…], time 7 day): 1%
- Fbg ([…], time 7 day): 300 mg/dL
- Hb ([…], time 7 day): 12.9 g/dL
- Ht ([…], time 7 day): 39.7%
- Lym ([…], time 7 day): 77.8%
- MCH ([…], time 7 day): 20.4 pg
- MCHC ([…], time 7 day): 32.5%
- MCV ([…], time 7 day): 62.4 fL
- Mono ([…], time 7 day): 2.8%
- Neu ([…], time 7 day): 17.4%
- PT ([…], time 7 day): 15.9 s
- Plat ([…], time 7 day): 106.5 x10_4/uL
- RBC ([…], time 7 day): 637.2 x10_4/ul
- Ret ([…], time 7 day): 6%
- WBC ([…], time 7 day): 115.8 x10_2/uL
- APTT ([…], time 14 day): 22.2 s
- Bas ([…], time 14 day): 0%
- Eos ([…], time 14 day): 0.8%
- Fbg ([…], time 14 day): 310.6 mg/dL
- Hb ([…], time 14 day): 12.8 g/dL
- Ht ([…], time 14 day): 39.4%
- Lym ([…], time 14 day): 80.6%
- MCH ([…], time 14 day): 21 pg
- MCHC ([…], time 14 day): 32.4%
- MCV ([…], time 14 day): 64.8 fL
- Mono ([…], time 14 day): 1.8%
- Neu ([…], time 14 day): 16.2%
- PT ([…], time 14 day): 16.1 s
- Plat ([…], time 14 day): 107.7 x10_4/uL
- RBC ([…], time 14 day): 608.6 x10_4/ul
- Ret ([…], time 14 day): 8.8%
- WBC ([…], time 14 day): 96.5 x10_2/uL
- APTT ([…], time 28 day): 25.3 s
- Bas ([…], time 28 day): 0%
- Eos ([…], time 28 day): 1%
- Fbg ([…], time 28 day): 307.6 mg/dL
- Hb ([…], time 28 day): 14.8 g/dL
- Ht ([…], time 28 day): 43.5%
- Lym ([…], time 28 day): 83.2%
- MCH ([…], time 28 day): 19.2 pg
- MCHC ([…], time 28 day): 34.1%
- MCV ([…], time 28 day): 56.3 fL
- Mono ([…], time 28 day): 1.6%
- Neu ([…], time 28 day): 13.8%
- PT ([…], time 28 day): 16.1 s
- Plat ([…], time 28 day): 91.8 x10_4/uL
- RBC ([…], time 28 day): 774.2 x10_4/ul
- Ret ([…], time 28 day): 2.9%
- WBC ([…], time 28 day): 104.4 x10_2/uL
- KIDNEY_L ([…], time 7 day): 1.2 g
- KIDNEY_R ([…], time 7 day): 1.2 g
- KIDNEY_TOTAL ([…], time 7 day): 2.3 g
- KIDNEY_L ([…], time 14 day): 1.3 g
- KIDNEY_R ([…], time 14 day): 1.3 g
- KIDNEY_TOTAL ([…], time 14 day): 2.5 g
- KIDNEY_L ([…], time 28 day): 1.4 g
- KIDNEY_R ([…], time 28 day): 1.5 g
- KIDNEY_TOTAL ([…], time 28 day): 2.9 g
- LIVER ([…], time 7 day): 13.3 g
- LIVER ([…], time 14 day): 14.2 g
- LIVER ([…], time 28 day): 16.9 g
- A/G ([…], time 7 day): 1.1
- ALP ([…], time 7 day): 1475.8 IU/L
- ALT ([…], time 7 day): 42.2 IU/L
- AST ([…], time 7 day): 65 IU/L
- BUN ([…], time 7 day): 20.4 mg/dL
- CRE ([…], time 7 day): 0.2 mg/dL
- Ca ([…], time 7 day): 10.7 mg/dL
- Cl ([…], time 7 day): 105 meq/L
- DBIL ([…], time 7 day): 0 mg/dL
- GLC ([…], time 7 day): 200.4 mg/dL
- IP ([…], time 7 day): 7.5 mg/dL
- K ([…], time 7 day): 4.2 meq/L
- LDH ([…], time 7 day): 152.8 IU/L
- Na ([…], time 7 day): 141.4 meq/L
- PL ([…], time 7 day): 152.6 mg/dL
- RALB ([…], time 7 day): 3 g/dL
- TBIL ([…], time 7 day): 0.002 mg/dL
- TC ([…], time 7 day): 80.2 mg/dL
- TG ([…], time 7 day): 113.4 mg/dL
- TP ([…], time 7 day): 5.6 g/dL
- gamma-GTP ([…], time 7 day): 2 IU/L
- A/G ([…], time 14 day): 1.1
- ALP ([…], time 14 day): 1564.4 IU/L
- ALT ([…], time 14 day): 45.6 IU/L
- AST ([…], time 14 day): 68.8 IU/L
- BUN ([…], time 14 day): 19 mg/dL
- CRE ([…], time 14 day): 0.2 mg/dL
- Ca ([…], time 14 day): 10.6 mg/dL
- Cl ([…], time 14 day): 104.6 meq/L
- DBIL ([…], time 14 day): 0 mg/dL
- GLC ([…], time 14 day): 211.6 mg/dL
- IP ([…], time 14 day): 7.1 mg/dL
- K ([…], time 14 day): 4.2 meq/L
- LDH ([…], time 14 day): 164.6 IU/L
- Na ([…], time 14 day): 140.6 meq/L
- PL ([…], time 14 day): 147.8 mg/dL
- RALB ([…], time 14 day): 3 g/dL
- TBIL ([…], time 14 day): 0.004 mg/dL
- TC ([…], time 14 day): 70.2 mg/dL
- TG ([…], time 14 day): 143 mg/dL
- TP ([…], time 14 day): 5.8 g/dL
- gamma-GTP ([…], time 14 day): 2.2 IU/L
- A/G ([…], time 28 day): 0.9
- ALP ([…], time 28 day): 1046.8 IU/L
- ALT ([…], time 28 day): 37.2 IU/L
- AST ([…], time 28 day): 61.8 IU/L
- BUN ([…], time 28 day): 19.2 mg/dL
- CRE ([…], time 28 day): 0.2 mg/dL
- Ca ([…], time 28 day): 10.5 mg/dL
- Cl ([…], time 28 day): 104.2 meq/L
- DBIL ([…], time 28 day): 0 mg/dL
- GLC ([…], time 28 day): 194.8 mg/dL
- IP ([…], time 28 day): 6.6 mg/dL
- K ([…], time 28 day): 3.8 meq/L
- LDH ([…], time 28 day): 132.8 IU/L
- Na ([…], time 28 day): 143.2 meq/L
- PL ([…], time 28 day): 135 mg/dL
- RALB ([…], time 28 day): 3 g/dL
- TBIL ([…], time 28 day): 0.01 mg/dL
- TC ([…], time 28 day): 67.8 mg/dL
- TG ([…], time 28 day): 133.6 mg/dL
- TP ([…], time 28 day): 6.2 g/dL
- gamma-GTP ([…], time 28 day): 2 IU/L
